In patent US10787452B2 (Vertex Pharmaceuticals Incorporated, priority 2012, dated 2020):

Test system: HCT116 colorectal cancer cells
Test: Cisplatin sensitization assay (96 h cell viability MTS);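 also: compound concentration needed to lower the Cisplatin-alone IC50 by a set fold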
Assay type: cell-based
Conditions: 96 h MTS, compound plus Cisplatin
In short: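 HCT116 cells were co-treated with compound and cisplatin, each in 2-fold serial dilutions from a 10 μM top final concentration, as a full matrix. After 96 h at 37 °C, 5% CO2, viability was read by MTS following a 1 h incubation with reagent.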

Compound	Cisplatin Sensitization Assay
CC1(C)CCCN1c1ccncc1NC(=O)c1c(N)nn2cc(F)cnc12 [I-N-220, 2-amino-N-(4-(2,2-dimethylpyrrolidin-1-yl)pyridin-3-yl)-6-fluoropyrazolo[1,5-a]pyrimidine-3-carboxamide]	++ (Compounds with a Cisplatin sensitization value >0.02 μM but <0.2 μM are marked with “++.”)
CS(=O)(=O)C1CCCN(c2ccncc2NC(=O)c2c(N)nn3cc(F)cnc23)C1 (centres unmarked) [I-N-221, 2-amino-6-fluoro-N-(4-(3-(methylsulfonyl)piperidin-1-yl)pyridin-3-yl)pyrazolo[1,5-a]pyrimidine-3-carboxamide]	++ (Compounds with a Cisplatin sensitization value >0.02 μM but <0.2 μM are marked with “++.”)
Nc1nn2cc(F)cnc2c1C(=O)Nc1cnccc1N1CC(=O)N2CCCC2C1 (centres unmarked) [I-N-222, 2-amino-6-fluoro-N-(4-(4-oxohexahydropyrrolo[1,2-a]pyrazin-2(1H)-yl)pyridin-3-yl)pyrazolo[1,5-a]pyrimidine-3-carboxamide]	++ (Compounds with a Cisplatin sensitization value >0.02 μM but <0.2 μM are marked with “++.”)
Cc1ccnn1-c1ccncc1NC(=O)c1c(N)nn2cc(F)cnc12 [I-N-223, 2-amino-6-fluoro-N-(4-(5-methyl-1H-pyrazol-1-yl)pyridin-3-yl)pyrazolo[1,5-a]pyrimidine-3-carboxamide]	++ (Compounds with a Cisplatin sensitization value >0.02 μM but <0.2 μM are marked with “++.”)
CN1C[C@@H]2CCN(c3ccncc3NC(=O)c3c(N)nn4cc(F)cnc34)C[C@@H]2C1=O [I-N-224, 2-amino-6-fluoro-N-(4-((3aR,7aR)-2-methyl-3-oxohexahydro-1H-pyrrolo[3,4-c]pyridin-5(6H)-yl)pyridin-3-yl)pyrazolo[1,5-a]pyrimidine-3-carboxamide]	+ (Compounds with a Cisplatin sensitization value >0.2 μM but <5 μM are marked with “+.”)
Cc1ccn(-c2ccncc2NC(=O)c2c(N)nn3cc(F)cnc23)n1 [I-N-225, 2-amino-6-fluoro-N-(4-(3-methyl-1H-pyrazol-1-yl)pyridin-3-yl)pyrazolo[1,5-a]pyrimidine-3-carboxamide]	++ (Compounds with a Cisplatin sensitization value >0.02 μM but <0.2 μM are marked with “++.”)
Nc1nn2cc(F)cnc2c1C(=O)Nc1cnccc1N1CCC2(CC1)COC2 [I-N-226, N-(4-(2-oxa-7-azaspiro[3.5]nonan-7-yl)pyridin-3-yl)-2-amino-6-fluoropyrazolo[1,5-a]pyrimidine-3-carboxamide]	+++ (Compounds with a Cisplatin sensitization value of <0.02 μM are marked with “+++.”)
CN1CCOCC1C(=O)N1CCN(c2c(F)cncc2NC(=O)c2c(N)nn3cc(F)cnc23)CC1 (centres unmarked) [I-N-227, 2-amino-6-fluoro-N-(5-fluoro-4-(4-(4-methylmorpholine-3-carbonyl)piperazin-1-yl)pyridin-3-yl)pyrazolo[1,5-a]pyrimidine-3-carboxamide]	+++ (Compounds with a Cisplatin sensitization value of <0.02 μM are marked with “+++.”)
Nc1nn2cc(F)cnc2c1C(=O)Nc1cncc(F)c1N1CCN(CC(=O)N2CCC2)CC1 [I-N-228, 2-amino-N-(4-(4-(2-(azetidin-1-yl)-2-oxoethyl)piperazin-1-yl)-5-fluoropyridin-3-yl)-6-fluoropyrazolo[1,5-a]pyrimidine-3-carboxamide]	+++ (Compounds with a Cisplatin sensitization value of <0.02 μM are marked with “+++.”)
CN1CC2(CCN(c3c(F)cncc3NC(=O)c3c(N)nn4cc(F)cnc34)CC2)OC1=O [I-N-229, 2-amino-6-fluoro-N-(5-fluoro-4-(3-methyl-2-oxo-1-oxa-3,8-diazaspiro[4.5]decan-8-yl)pyridin-3-yl)pyrazolo[1,5-a]pyrimidine-3-carboxamide]	+++ (Compounds with a Cisplatin sensitization value of <0.02 μM are marked with “+++.”)
Nc1nn2cc(F)cnc2c1C(=O)Nc1cnccc1N1CCC(N2CCCC2=O)CC1 [I-N-230, 2-amino-6-fluoro-N-(4-(4-(2-oxopyrrolidin-1-yl)piperidin-1-yl)pyridin-3-yl)pyrazolo[1,5-a]pyrimidine-3-carboxamide]	+++ (Compounds with a Cisplatin sensitization value of <0.02 μM are marked with “+++.”)
CN1CC2(CCC1=O)CCN(c1ccncc1NC(=O)c1c(N)nn3cc(F)cnc13)CC2 [I-N-231, 2-amino-6-fluoro-N-(4-(2-methyl-3-oxo-2,9-diazaspiro[5.5]undecan-9-yl)pyridin-3-yl)pyrazolo[1,5-a]pyrimidine-3-carboxamide]	+++ (Compounds with a Cisplatin sensitization value of <0.02 μM are marked with “+++.”)
Nc1nn2cc(F)cnc2c1C(=O)Nc1cncc(F)c1N1CC(=O)N2CCCC2C1 (centres unmarked) [I-N-232, 2-amino-6-fluoro-N-(5-fluoro-4-(4-oxohexahydropyrrolo[1,2-a]pyrazin-2(1H)-yl)pyridin-3-yl)pyrazolo[1,5-a]pyrimidine-3-carboxamide]	++ (Compounds with a Cisplatin sensitization value >0.02 μM but <0.2 μM are marked with “++.”)
CN1CCN2CCN(c3ccncc3NC(=O)c3c(N)nn4cc(F)cnc34)CC2C1=O (centres unmarked) [I-N-233, 2-amino-6-fluoro-N-(4-(8-methyl-9-oxohexahydro-1H-pyrazino[1,2-a]pyrazin-2(6H)-yl)pyridin-3-yl)pyrazolo[1,5-a]pyrimidine-3-carboxamide]	++ (Compounds with a Cisplatin sensitization value >0.02 μM but <0.2 μM are marked with “++.”)
CN(C)C(=O)C1CN(c2ccncc2NC(=O)c2c(N)nn3cc(F)cnc23)CCO1 (centres unmarked) [I-N-234, 4-(3-(2-amino-6-fluoropyrazolo[1,5-a]pyrimidine-3-carboxamido)pyridin-4-yl)-N,N-dimethylmorpholine-2-carboxamide]	+ (Compounds with a Cisplatin sensitization value >0.2 μM but <5 μM are marked with “+.”)
CN1C(=O)CCC12CCN(c1ccncc1NC(=O)c1c(N)nn3cc(F)cnc13)CC2 [I-N-235, 2-amino-6-fluoro-N-(4-(1-methyl-2-oxo-1,8-diazaspiro[4.5]decan-8-yl)pyridin-3-yl)pyrazolo[1,5-a]pyrimidine-3-carboxamide]	++ (Compounds with a Cisplatin sensitization value >0.02 μM but <0.2 μM are marked with “++.”)
CN1CC2(CCN(c3ccncc3NC(=O)c3c(N)nn4cc(F)cnc34)CC2)CC1=O [I-N-236, 2-amino-6-fluoro-N-(4-(2-methyl-3-oxo-2,8-diazaspiro[4.5]decan-8-yl)pyridin-3-yl)pyrazolo[1,5-a]pyrimidine-3-carboxamide]	+++ (Compounds with a Cisplatin sensitization value of <0.02 μM are marked with “+++.”)
Cc1cncc(NC(=O)c2c(N)nn3cc(F)cnc23)c1-n1nccc1C [I-N-237]	+ (Compounds with a Cisplatin sensitization value >0.2 μM but <5 μM are marked with “+.”)
Nc1nn2cc(F)cnc2c1C(=O)Nc1cnccc1N1CCN2C(=O)OCC2C1 (centres unmarked) [I-N-238, 2-amino-6-fluoro-N-(4-(3-oxotetrahydro-1H-oxazolo[3,4-a]pyrazin-7(3H)-yl)pyridin-3-yl)pyrazolo[1,5-a]pyrimidine-3-carboxamide]	++ (Compounds with a Cisplatin sensitization value >0.02 μM but <0.2 μM are marked with “++.”)
Nc1nn2cc(F)cnc2c1C(=O)Nc1cncc(F)c1N1CCC2(CC1)COC2 [I-N-239, 2-amino-6-fluoro-N-(5-fluoro-4-(2-oxa-7-azaspiro[3.5]nonan-7-yl)pyridin-3-yl)pyrazolo[1,5-a]pyrimidine-3-carboxamide]	+++ (Compounds with a Cisplatin sensitization value of <0.02 μM are marked with “+++.”)
CN1CCN2CCN(c3c(F)cncc3NC(=O)c3c(N)nn4cc(F)cnc34)CC2C1=O (centres unmarked) [I-N-240, 2-amino-6-fluoro-N-(5-fluoro-4-(8-methyl-9-oxohexahydro-1H-pyrazino[1,2-a]pyrazin-2(6H)-yl)pyridin-3-yl)pyrazolo[1,5-a]pyrimidine-3-carboxamide]	++ (Compounds with a Cisplatin sensitization value >0.02 μM but <0.2 μM are marked with “++.”)
Nc1nn2cc(F)cnc2c1C(=O)Nc1cnccc1N1CCC(c2ncon2)CC1 [I-N-241, N-(4-(4-(1,2,4-oxadiazol-3-yl)piperidin-1-yl)pyridin-3-yl)-2-amino-6-fluoropyrazolo[1,5-a]pyrimidine-3-carboxamide]	+++ (Compounds with a Cisplatin sensitization value of <0.02 μM are marked with “+++.”)
Cc1ncnn1-c1c(F)cncc1NC(=O)c1c(N)nn2cc(F)cnc12 [I-N-242, 2-amino-6-fluoro-N-(5-fluoro-4-(5-methyl-1H-1,2,4-triazol-1-yl)pyridin-3-yl)pyrazolo[1,5-a]pyrimidine-3-carboxamide]	+ (Compounds with a Cisplatin sensitization value >0.2 μM but <5 μM are marked with “+.”)
CC1(S(C)(=O)=O)CCN(c2ccncc2NC(=O)c2c(N)nn3cc(F)cnc23)CC1 [I-N-243, 2-amino-6-fluoro-N-(4-(4-methyl-4-(methylsulfonyl)piperidin-1-yl)pyridin-3-yl)pyrazolo[1,5-a]pyrimidine-3-carboxamide]	+++ (Compounds with a Cisplatin sensitization value of <0.02 μM are marked with “+++.”)
Nc1nn2cc(F)cnc2c1C(=O)Nc1cnccc1N1CCN2C(=O)CCCC2C1 (centres unmarked) [I-N-244, 2-amino-6-fluoro-N-(4-(6-oxohexahydro-1H-pyrido[1,2-a]pyrazin-2(6H)-yl)pyridin-3-yl)pyrazolo[1,5-a]pyrimidine-3-carboxamide]	+++ (Compounds with a Cisplatin sensitization value of <0.02 μM are marked with “+++.”)
CC(C)N1CCN2CCN(c3ccncc3NC(=O)c3c(N)nn4cc(F)cnc34)CC2C1=O (centres unmarked) [I-N-245, 2-amino-6-fluoro-N-(4-(8-isopropyl-9-oxohexahydro-1H-pyrazino[1,2-a]pyrazin-2(6H)-yl)pyridin-3-yl)pyrazolo[1,5-a]pyrimidine-3-carboxamide]	++ (Compounds with a Cisplatin sensitization value >0.02 μM but <0.2 μM are marked with “++.”)
